Data published in patent US20260130395A1, “Water Dispersible Botanical Compositions” (Aquila Black Limited, priority 2021, published 2026).

Test: Stability of cannabinoid compounds and Vitamin E components in Beverage 2 (AB Red) by LCMSMS
Type: physicochemical

CCCCCc1cc2c(c(O)c1C(=O)O)[C@@H]1C=C(C)CC[C@H]1C(C)(C)O2 [D9 THCA, delta-9-tetrahydrocannabinolic acid]
Stability of Plant-Derived Cannabinoid Compounds in AB Red (stored at 8° C., 0 days): 1.35 µg/mL
Stability of Plant-Derived Cannabinoid Compounds in AB Red (stored at 8° C., 1 days): 1.34 µg/mL
Stability of Plant-Derived Cannabinoid Compounds in AB Red (stored at 8° C., 2 days): 1.34 µg/mL
Stability of Plant-Derived Cannabinoid Compounds in AB Red (stored at 8° C., 3 days): 1.35 µg/mL
Stability of Plant-Derived Cannabinoid Compounds in AB Red (stored at 8° C., 5 days): 1.36 µg/mL
Stability of Plant-Derived Cannabinoid Compounds in AB Red (stored at 8° C., 8 days): 1.35 µg/mL
Stability of Plant-Derived Cannabinoid Compounds in AB Red (stored at 8° C., 9 days): 1.36 µg/mL
Stability of Plant-Derived Cannabinoid Compounds in AB Red (stored at 8° C., 10 days): 1.35 µg/mL
Stability of Plant-Derived Cannabinoid Compounds in AB Red (stored at 8° C., 11 days): 1.35 µg/mL
Stability of Plant-Derived Cannabinoid Compounds in AB Red (stored at 8° C., 12 days): 1.32 µg/mL
Stability of Plant-Derived Cannabinoid Compounds in AB Red (stored at 8° C., 15 days): 1.33 µg/mL
Stability of Plant-Derived Cannabinoid Compounds in AB Red (stored at 8° C., 16 days): 1.31 µg/mL
Stability of Plant-Derived Cannabinoid Compounds in AB Red (stored at 8° C., 17 days): 1.34 µg/mL
Stability of Plant-Derived Cannabinoid Compounds in AB Red (stored at 8° C., 18 days): 1.35 µg/mL
Stability of Plant-Derived Cannabinoid Compounds in AB Red (stored at 8° C., 19 days): 1.32 µg/mL
Stability of Plant-Derived Cannabinoid Compounds in AB Red (stored at 8° C., 22 days): 1.34 µg/mL
Stability of Plant-Derived Cannabinoid Compounds in AB Red (stored at 8° C., 23 days): 1.33 µg/mL
Stability of Plant-Derived Cannabinoid Compounds in AB Red (stored at 8° C., 24 days): 1.33 µg/mL
Stability of Plant-Derived Cannabinoid Compounds in AB Red (stored at 8° C., 25 days): 1.34 µg/mL
Stability of Plant-Derived Cannabinoid Compounds in AB Red (stored at 8° C., 26 days): 1.33 µg/mL
Stability of Plant-Derived Cannabinoid Compounds in AB Red (stored at 8° C., 29 days): 1.35 µg/mL
Stability of Plant-Derived Cannabinoid Compounds in AB Red (stored at 8° C., 30 days): 1.31 µg/mL
Stability of Plant-Derived Cannabinoid Compounds in AB Red (stored at 8° C., 60 days): 1.32 µg/mL
Stability of Plant-Derived Cannabinoid Compounds in AB Red (stored at 8° C., 90 days): 1.34 µg/mL
Stability of Plant-Derived Cannabinoid Compounds in AB Red (stored at 8° C., 120 days): 1.30 µg/mL
Stability of Plant-Derived Cannabinoid Compounds in AB Red (stored at 8° C., 150 days): 1.34 µg/mL
Stability of Plant-Derived Cannabinoid Compounds in AB Red (stored at 8° C., 180 days): 1.30 µg/mL
Stability of Plant-Derived Cannabinoid Compounds in AB Red (stored at 8° C., 210 days): 1.33 µg/mL
Stability of Plant-Derived Cannabinoid Compounds in AB Red (stored at 8° C., 240 days): 1.32 µg/mL
Stability of Plant-Derived Cannabinoid Compounds in AB Red (stored at 8° C., 270 days): 1.33 µg/mL
Stability of Plant-Derived Cannabinoid Compounds in AB Red (stored at 8° C., 300 days): 1.30 µg/mL
Stability of Plant-Derived Cannabinoid Compounds in AB Red (stored at 8° C., 330 days): 1.34 µg/mL
Stability of Plant-Derived Cannabinoid Compounds in AB Red (stored at 8° C., 360 days): 1.31 µg/mL
Stability of Plant-Derived Cannabinoid Compounds in AB Red (stored at 8° C., 390 days): 1.29 µg/mL
Stability of Plant-Derived Cannabinoid Compounds in AB Red (stored at 8° C., 420 days): 1.29 µg/mL
Stability of Plant-Derived Cannabinoid Compounds in AB Red (stored at 8° C., 450 days): 1.31 µg/mL
Stability of Plant-Derived Cannabinoid Compounds in AB Red (stored at 8° C., 480 days): 1.28 µg/mL
Stability of Plant-Derived Cannabinoid Compounds in AB Red (stored at 8° C., 510 days): 1.25 µg/mL
Stability of Plant-Derived Cannabinoid Compounds in AB Red (stored at 8° C., 540 days): 1.26 µg/mL
Stability of Plant-Derived Cannabinoid Compounds in AB Red (stored at 8° C., 570 days): 1.24 µg/mL
Stability of Plant-Derived Cannabinoid Compounds in AB Red (stored at 21-25° C., 0 days): 1.35 µg/mL
Stability of Plant-Derived Cannabinoid Compounds in AB Red (stored at 21-25° C., 1 days): 1.34 µg/mL
Stability of Plant-Derived Cannabinoid Compounds in AB Red (stored at 21-25° C., 2 days): 1.30 µg/mL
Stability of Plant-Derived Cannabinoid Compounds in AB Red (stored at 21-25° C., 3 days): 1.32 µg/mL
Stability of Plant-Derived Cannabinoid Compounds in AB Red (stored at 21-25° C., 5 days): 1.36 µg/mL
Stability of Plant-Derived Cannabinoid Compounds in AB Red (stored at 21-25° C., 8 days): 1.36 µg/mL
Stability of Plant-Derived Cannabinoid Compounds in AB Red (stored at 21-25° C., 9 days): 1.35 µg/mL
Stability of Plant-Derived Cannabinoid Compounds in AB Red (stored at 21-25° C., 10 days): 1.33 µg/mL
Stability of Plant-Derived Cannabinoid Compounds in AB Red (stored at 21-25° C., 11 days): 1.33 µg/mL
Stability of Plant-Derived Cannabinoid Compounds in AB Red (stored at 21-25° C., 12 days): 1.33 µg/mL
Stability of Plant-Derived Cannabinoid Compounds in AB Red (stored at 21-25° C., 15 days): 1.30 µg/mL
Stability of Plant-Derived Cannabinoid Compounds in AB Red (stored at 21-25° C., 16 days): 1.36 µg/mL
Stability of Plant-Derived Cannabinoid Compounds in AB Red (stored at 21-25° C., 17 days): 1.35 µg/mL
Stability of Plant-Derived Cannabinoid Compounds in AB Red (stored at 21-25° C., 18 days): 1.36 µg/mL
Stability of Plant-Derived Cannabinoid Compounds in AB Red (stored at 21-25° C., 19 days): 1.31 µg/mL
Stability of Plant-Derived Cannabinoid Compounds in AB Red (stored at 21-25° C., 22 days): 1.34 µg/mL
Stability of Plant-Derived Cannabinoid Compounds in AB Red (stored at 21-25° C., 23 days): 1.36 µg/mL
Stability of Plant-Derived Cannabinoid Compounds in AB Red (stored at 21-25° C., 24 days): 1.30 µg/mL
Stability of Plant-Derived Cannabinoid Compounds in AB Red (stored at 21-25° C., 25 days): 1.35 µg/mL
Stability of Plant-Derived Cannabinoid Compounds in AB Red (stored at 21-25° C., 26 days): 1.32 µg/mL
Stability of Plant-Derived Cannabinoid Compounds in AB Red (stored at 21-25° C., 29 days): 1.33 µg/mL
Stability of Plant-Derived Cannabinoid Compounds in AB Red (stored at 21-25° C., 30 days): 1.34 µg/mL
Stability of Plant-Derived Cannabinoid Compounds in AB Red (stored at 21-25° C., 60 days): 1.28 µg/mL
Stability of Plant-Derived Cannabinoid Compounds in AB Red (stored at 21-25° C., 90 days): 1.34 µg/mL
Stability of Plant-Derived Cannabinoid Compounds in AB Red (stored at 21-25° C., 120 days): 1.34 µg/mL
Stability of Plant-Derived Cannabinoid Compounds in AB Red (stored at 21-25° C., 150 days): 1.28 µg/mL
Stability of Plant-Derived Cannabinoid Compounds in AB Red (stored at 21-25° C., 180 days): 1.30 µg/mL
Stability of Plant-Derived Cannabinoid Compounds in AB Red (stored at 21-25° C., 210 days): 1.33 µg/mL
Stability of Plant-Derived Cannabinoid Compounds in AB Red (stored at 21-25° C., 240 days): 1.31 µg/mL
Stability of Plant-Derived Cannabinoid Compounds in AB Red (stored at 21-25° C., 270 days): 1.27 µg/mL
Stability of Plant-Derived Cannabinoid Compounds in AB Red (stored at 21-25° C., 300 days): 1.27 µg/mL
Stability of Plant-Derived Cannabinoid Compounds in AB Red (stored at 21-25° C., 330 days): 1.28 µg/mL
Stability of Plant-Derived Cannabinoid Compounds in AB Red (stored at 21-25° C., 360 days): 1.29 µg/mL
Stability of Plant-Derived Cannabinoid Compounds in AB Red (stored at 21-25° C., 390 days): 1.26 µg/mL
Stability of Plant-Derived Cannabinoid Compounds in AB Red (stored at 21-25° C., 420 days): 1.26 µg/mL
Stability of Plant-Derived Cannabinoid Compounds in AB Red (stored at 21-25° C., 450 days): 1.31 µg/mL
Stability of Plant-Derived Cannabinoid Compounds in AB Red (stored at 21-25° C., 480 days): 1.29 µg/mL
Stability of Plant-Derived Cannabinoid Compounds in AB Red (stored at 21-25° C., 510 days): 1.27 µg/mL
Stability of Plant-Derived Cannabinoid Compounds in AB Red (stored at 21-25° C., 540 days): 1.29 µg/mL
Stability of Plant-Derived Cannabinoid Compounds in AB Red (stored at 21-25° C., 570 days): 1.24 µg/mL
